Key:
[1] = test system: diffuse axonal injury in rats (impact acceleration injury); experiment: Impact acceleration injury model in rats: APP / active caspase-3 positive axons by immunohistochemistry; format: in vivo, Sprague-Dawley rats; settings: for APP positive axons: 30 days post injury, p<0.05 versus 148 in unsupplemented animals (sham 6)
Excerpt: (§1) Method. The impact acceleration injury model in rats described in Marmarou et al., J Neurosurg. 80:291-300 (1994), incorporated herein by reference, was used for the study. Four groups of ten (n=40) of adult male Sprague-Dawley rats were subjected to an impact acceleration injury resulting in reproducible severe traumatic brain injury. Rats weighing between 350 and 400 g received induction anesthesia and subsequently maintained on inhaled anesthetic using a modified medical anesthesia machine. The animals were shaved and prepared in sterile fashion for surgery, followed by subcutaneous injection of local anesthetic into the planned incision site. A 3 cm midline incision in the scalp was made, periosteal membranes separated, exposing bregma and lambda. A metal disk 10 mm in diameter and 3 mm thick was attached to the skull with cyanoacrylate and centered between bregma and lambda. The animal was placed prone on a foam bed with the metal disk directly under a plexiglas tube. A 450 g brass weight was dropped through the tube from a height of 2 meters striking the disk. The animal was then ventilated on 100% O2 while the skull inspected and the incision repaired. When the animal recovered spontaneous respirations, anesthesia was discontinued and the animal returned to its cage for postoperative observation (Marmarou et al., supra). All procedures involving live animals were approved by the Institutional Animal Care and Use Committee of West Virginia University, and were performed according to the principles of the Guide for the Care and Use of Laboratory Animals, published by the Institute of Laboratory Resources, National Research Council (NIH publication 85-23-2985).
(§2) DHA supplementation and serum level monitoring. The four groups received dietary supplementation with DHA (Martek, Columbia, Md.). Two of the four groups received dietary supplementation DHA daily in the following amounts: Group 1, 10 mg/kg/day; Group 2, 40 mg/kg/day. Groups 3 served as an unsupplemented control, and Group 4 underwent sham injury and received no supplementation. Each group received rat chow ad lib and were housed in a small animal vivarium under veterinary staff supervision. Fatty acid blood testing was performed prior to the injury and at the end of the 30 days of DHA supplementation by analyzing the isolated serum phospholipids (including DHA, EPA and Arachidonic acid) from 50 microliter blood samples using a previously described method (Holub and Skeaff, Methods Enzymol. 141:234-44 (1987); Nutrasource Diagnostics, University of Guelph, Ontario, Canada).
Tissue Preparation and Immunohistochemical Labeling. Following 30 day post-injury, surviving animals were euthanized with a lethal dose injection of 0.5 ml Ketamine and 0.5 ml Xylazine. […]

[2] = Serum phospholipid fatty acid levels after DHA supplementation following brain trauma; format: in vivo, Sprague-Dawley rats; settings: for increased levels of serum DHA over initial levels: dietary, serum phospholipids
Method: as §2

[3] = Tolerability of daily oral supplementation in the impact acceleration model; format: in vivo; settings: 10 or 40 mg/kg/day
Excerpt: as §1, with “All procedures involving live animals were approved by the Institutional Animal Care and Use Committee of West Virginia University, and were performed according to the principles of the Guide for the Care and Use of Laboratory Animals, published by the Institute of Laboratory Resources, National Research Council (NIH publication 85-23-2985).” left out

Q: For `CC/C=C\C/C=C\C/C=C\C/C=C\C/C=C\C/C=C\CCC(=O)O` [DHA, (all-Z)-4,7,10,13,16,19-docosahexaenoic acid], which APP positive axons ([1]; 10 mg/kg/day DHA, corticospinal tract and medial lemnisci) is on record?
A: 26 axons per mm^2

Q: What about the APP positive axons ([1]; 40 mg/kg/day DHA, corticospinal tract and medial lemnisci) of the same molecule?
A: 20 axons per mm^2

Q: What about the “APP labeling of axons, qualitative” value ([1]; 10 or 40 mg/kg/day DHA, corticospinal tract and medial lemnisci) of the same molecule?
A: only rare APP positive axons, similar to sham injured animals

Q: And the “active caspase-3 positive axons” value ([1]; 10 or 40 mg/kg/day oral, 30 days following injury, data not shown)?
A: significant decrease

Q: What about the “decrease in AA:EPA ratio, a marker of inflammation” value ([2]; 10 mg/kg/day DHA, 30 days after brain trauma, serum) of the same molecule?
A: 72%

Q: And the “increased levels of serum DHA over initial levels” value ([2]; 10 mg/kg/day DHA, 30 days after brain trauma)?
A: 123%

Q: What about the “increased levels of serum DHA over initial levels” value ([2]; 40 mg/kg/day DHA, 30 days after brain trauma) of the same molecule?
A: 176%

Q: What about the “total EPA and DHA in serum phospholipids compared to the sham animals” value ([2]; end of supplementation period, 10 and 40 mg/kg/day) of the same molecule?
A: dose-response effect in the increase

Q: And the “serum arachidonic acid levels” value ([2]; supplemented animals, end of supplementation period)?
A: non-significant increase

Q: And the “observed untoward effects of daily oral supplementation” value [3]?
A: without any observed untoward effects

Reference: patent US20110086914A1, “Methods for Treating Traumatic Brain Injury” (priority 2009, published 2011)
